Experiments:
[1] = target: T1, IRE1α endonuclease (Rattus norvegicus, UniProt A0A4Y1YQ52); assay: XBP1 splicing assay in VSMCs; format: cell-based; conditions: tunicamycin (1 μg/ml) 6 h, 4μ8c 30 μM or STF-083010 60 μM, FIG. 1A
T1 construct: endogenous in cells; host or cells: primary aortic vascular smooth muscle cells from 5-week old WKY rats
Experimental: (§1) VSMCs were treated with tunicamycin (1 μg/ml) and either 4μ8c (30 μM) or STF-083010 (60 μM) for 6 h or 24 h. (A) Agarose gel for assessment of XBP1 splicing after 6 h of treatment with tunicamycin and densitometric quantification. (B) Western blot for assessment of ER chaperone expression after 24 h tunicamycin treatment with or without inhibition of IRE1α by 4μ8c. Data is presented as mean±SEM. *, p<0.05 vs. Vehicle; #, p<0.05 vs. Tm.
(§2) VSMCs were cultured in DMEM/F12 containing 1% FBS. Confluent cells were treated with L-ascorbic acid-2-phosphate (100 μg/ml) and either TGF-β1 (5 ng/ml) or Ang II (1 μM). (A) Agarose gel for assessment of TGF-β1-induced XBP1 splicing in VSMCs after 24 h. (B) Picro-Sirius Red assay for measurement of collagen deposition induced by combined TGF-β1 and AA2P treatment after 72 h, and inhibition by 4μ8c and STF-083010. (C) Western blot for assessment of collagen chaperone expression after treatment of TGF-β1 and 4μ8c for 48 h. *, p<0.05. (D) Measurement of Ang II-induced collagen production and inhibition by 4μ8c and STF-083010 after 72 h.
VSMCs were isolated from the aortas of 5-week old WKY rats using the explant method^29. The thoracic aorta was removed from the animal and placed in ice-cold 5× Antibiotics-Antimycotics solution (ThermoFisher). The adventitia was gently removed and the aorta was cut longitudinally. The endothelial layer was removed by gentle scraping with forceps. […]
Total RNA was extracted from cultured cells and rat tissues using the TRIzol reagent (ThermoFisher) according to manufacturer's instructions. RNA concentration and purity were measured using a Nanodrop ND-1000 spectrophotometer (NanoDrop Technologies, Inc.). […]
Aortic VSMCs were isolated from normotensive WKY rats and used for in vitro experiments. […] To test the ability of these compounds to block the IRE1α endonuclease, XBP1 splicing was measured in VSMCs treated with the ER stress inducer tunicamycin for 6 h with or without pre-treatment by 4μ8c or STF-083010. […]

[2] = system: GRP78, GRP94 and PDI; assay: Western blot of ER chaperone / ER stress marker expression in VSMCs; format: cell-based, rat; conditions: 24 h tunicamycin treatment, FIG. 1B
Experimental: as §1, §2
VSMCs were isolated from the aortas of 5-week old WKY rats using the explant method^29. The thoracic aorta was removed from the animal and placed in ice-cold 5× Antibiotics-Antimycotics solution (ThermoFisher). The adventitia was gently removed and the aorta was cut longitudinally. The endothelial layer was removed by gentle scraping with forceps. The aorta was cut into 3 mm^2 squares and placed on a 6 well plate in DMEM/F12 medium containing 10% fetal bovine serum (FBS). Explants were incubated undisturbed in a 5% CO2 incubator at 37° C. for 1 week and then passaged. […]
Cells were lysed in 1× Laemmli buffer and protein content was quantified using the BioRad DC Protein Assay (BioRad, Mississauga, Canada). […]

[3] = system: VSMCs; assay: Picro-Sirius Red assay of collagen synthesis in VSMCs; format: cell-based, rat
Experimental: as §2
VSMCs were isolated from the aortas of 5-week old WKY rats using the explant method^29. The thoracic aorta was removed from the animal and placed in ice-cold 5× Antibiotics-Antimycotics solution (ThermoFisher). The adventitia was gently removed and the aorta was cut longitudinally. The endothelial layer was removed by gentle scraping with forceps. The aorta was cut into 3 mm^2 squares and placed on a 6 well plate in DMEM/F12 medium containing 10% fetal bovine serum (FBS). Explants were incubated undisturbed in a 5% CO2 incubator at 37° C. for 1 week and then passaged. Sprague-Dawley renal fibroblasts were purchased (Cell Biologics) and cultured in low glucose DMEM/F12 medium containing 10% FBS, streptomycin (100 μgimp, and penicillin (100 U/ml, Invitrogen, Burlington, ON). Cells between passages 5 and 10 were used for experiments. Cells were cultured in medium containing 1% FBS overnight before treatment.
Collagen synthesis was measured using a Picro-Sirius Red-based assay as previously described^30. Briefly, cells cultured on a 96 well plate were fixed in methanol for 10 minutes at −20° C. Cells were washed once with PBS and incubated with Picrosirius Red stain (0.1% Direct Red 80 in saturated picric acid) for 1 h at room temperature. After the staining solution was removed, the cells were washed three times with 0.1% acetic acid and then imaged. The dye was then eluted with 0.1 N NaOH for 10 minutes on a rocking platform. Absorbance at 540 nm was measured using a Spectramax Plus Microplate Reader (Molecular Devices).
Cells were co-treated with either 4μ8c or S′TF-083010 to inhibit IRE1α endonuclease activity. TGF-β1 induced XBP1 splicing after 24 h, which was blocked by co-treatment with 4μ8c (FIG. 2A). Collagen production was measured using a Picro-Sirius Red-based colorimetric assay. TGF-β1 combined with AA2P induced collagen synthesis in the VSMCs, which was inhibited by co-treatment with 4μ8c or STF-083010 (FIG. 2B).

T1 sequence (A0A4Y1YQ52 21-977): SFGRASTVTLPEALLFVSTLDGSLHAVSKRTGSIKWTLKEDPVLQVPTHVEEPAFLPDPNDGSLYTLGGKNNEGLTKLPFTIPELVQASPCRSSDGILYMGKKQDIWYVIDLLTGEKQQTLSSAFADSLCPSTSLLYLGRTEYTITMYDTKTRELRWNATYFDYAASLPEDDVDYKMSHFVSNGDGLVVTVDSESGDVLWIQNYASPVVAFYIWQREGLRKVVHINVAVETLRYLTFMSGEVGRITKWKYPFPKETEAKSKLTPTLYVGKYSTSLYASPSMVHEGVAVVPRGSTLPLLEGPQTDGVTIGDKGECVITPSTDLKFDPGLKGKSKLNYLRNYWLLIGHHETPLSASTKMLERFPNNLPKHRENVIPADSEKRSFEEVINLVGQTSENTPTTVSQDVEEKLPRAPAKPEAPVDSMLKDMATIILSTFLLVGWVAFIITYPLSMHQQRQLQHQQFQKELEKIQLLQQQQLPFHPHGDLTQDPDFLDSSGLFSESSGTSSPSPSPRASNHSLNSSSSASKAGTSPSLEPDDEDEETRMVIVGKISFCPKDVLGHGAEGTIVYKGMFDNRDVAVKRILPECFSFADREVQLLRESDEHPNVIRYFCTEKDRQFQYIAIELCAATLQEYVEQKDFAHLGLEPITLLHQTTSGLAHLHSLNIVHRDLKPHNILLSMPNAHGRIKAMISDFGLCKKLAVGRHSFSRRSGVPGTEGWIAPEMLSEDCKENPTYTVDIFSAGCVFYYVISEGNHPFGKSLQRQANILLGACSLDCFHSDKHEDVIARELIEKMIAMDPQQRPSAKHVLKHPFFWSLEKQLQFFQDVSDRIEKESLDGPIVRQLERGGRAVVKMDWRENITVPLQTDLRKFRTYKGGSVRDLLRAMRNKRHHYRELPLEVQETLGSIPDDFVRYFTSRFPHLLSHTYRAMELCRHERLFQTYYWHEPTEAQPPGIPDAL

`O=S(=O)(/N=C/c1c(O)ccc2ccccc12)c1cccs1` [STF-083010, N-[(2-Hydroxy-1-naphthyl)methylene]-2-thiophenesulfonamide] was tested, and the “spliced-to-unspliced XBP1 ratio” value [1] was “reduced”, the “elevated expression levels of ER stress markers GRP78, GRP94 and PDI” value [2] was “reduced” and the “collagen synthesis induced by TGF-β1 combined with AA2P” value ([3]; 72 h, co-treatment, FIG. 2B) was “inhibited”. For the same compound, the “collagen synthesis induced by Ang II” value ([3]; Ang II (1 μM) 72 h, FIG. 2D) was “inhibition”.
